Data taken from PMC7667029, “A Targeted Computational Screen of the SWEETLEAD Database Reveals FDA-Approved Compounds with Anti-Dengue Viral Activity” (mBio, 2020).
“Also recorded” adds a separate entry of the source.

Experiments:
dengue virus [1] = test: Initial screening of hit compounds for anti-dengue activity in tissue culture cells (Table S1); format: cell-based; conditions: viral titer relative to vehicle, tissue culture cell lines (BHK-21 48 hpi, Fig. S1; Huh7, Fig. 2C, 3C, 4C)
Method: For each query molecule, the top 500 compound hits obtained from the ROCS algorithm, as ranked by the Tanimoto combo score (see Data Set S1 in the supplemental material), were manually inspected for similar chemical and structural features. They were further prioritized by factors such as a lack of known side effects, commercial availability, and the intellectual property considerations that would be needed for worldwide, inexpensive use. Fourteen candidates were tested for their effects on dengue virus growth and toxicity in BHK-21 and Huh7 cells (see Table S1 and Fig. S1 in the supplemental material).
(§1) Supplementary file : TABLE S1 Summary of hits for lead compounds ARDP0006 and ST-148 screened for anti-dengue activity in tissue culture cells. Hit compounds were tested for anti-dengue activity and cell toxicity in tissue culture cell lines. Antiviral activity is summarized as follows: −, not antiviral, with titer greater than 50% of vehicle; +, weakly antiviral, with titer between 20 and 50% of vehicle; ++, moderately antiviral, with titer between 5 and 20% of vehicle; +++, highly antiviral, with titer less than 5% of vehicle. Toxicity at these doses is represented as follows: −, nontoxic, with cell viability greater than 80% of vehicle; +, mild toxicity, with cell viability between 60 and 80% of vehicle; +++, high toxicity, with cell viability less than 60% of vehicle. Data summarized here are depicted graphically in Fig. S1 and Fig. 2C, 3C, and [4]C. The Tanimoto combo score of each hit during initial ROCS screening is indicated; higher Tanimoto combo scores are indicative of increased chemical similarity. Download Table S1, PDF file, 0.04 MB.
Supplementary file : FIG S1 Initial screening of eliminated hit compounds for anti-dengue activity in tissue culture cells. BHK-21 cells were pretreated with the compounds at the indicated concentrations for 30 min, infected with dengue virus at an MOI of 0.1 PFU/cell for 1 h, and then posttreated with compound. At 48 hpi, cellular supernatant was collected and titered by plaque assay (purple). Cell viability in uninfected cells in the presence of compounds for 48 h was measured by WST assay (gray). Both viral titer and cell viability are normalized to their relative DMSO vehicle control, N = 2. Download FIG S1, PDF file, 0.06 MB.

dengue viral RNA = test: Intracellular viral RNA quantification by qRT-PCR in infected Huh7 cells; format: cell-based, dengue virus
Method: (§2) (A) Chemical structures and (B) ROCS overlay of ST-148 and niclosamide. […] Compound addition, viral growth, and cytotoxicity assays were performed as described in the legend to Fig. 2C. (D) Virucidal activity of compounds at the concentrations indicated was measured after 60-min incubation of drugs with virus-containing solutions at 37°C. Viral titer was quantified by plaque assay on BHK-21 cells. n = 3. Statistical significance was evaluated by one-way ANOVA with Sidak’s multiple-comparison test and indicated as follows: *, P < 0.05; **, P < 0.01; ****, P < 0.0001; ns, not significant. […] On the left, cells were pretreated for 2 h prior to infection, compounds were removed during a 1-h infection at an MOI of 0.5 PFU/cell and then readministered after removal of viral inoculum. On the right, cells were similarly infected and compounds were first introduced 4 h after starting the infection. […] (F) To test the effect of ST-148 and niclosamide on viral RNA replication, Huh7 cells were infected for 1 h at an MOI of 0.5 PFU/cell. […] Intracellular RNA was collected at the time points indicated and quantified by qRT-PCR. […] N = 4, two-way ANOVA with Dunnett’s multiple-comparison test. […] After 4 h of infection, 10 μM ST-148 or 1 μM niclosamide was added; extracellular virus was collected at 24 hpi and quantified by plaque assay.

DENV2 = test: Antiviral activity in DENV2-infected Huh7 cells, infectious virus in supernatant by plaque assay; format: cell-based, dengue virus
Method: FIG 2 Pyrimethamine inhibits dengue virus and NS2B/3 proteinase cleavage like ARDP0006. (A) Chemical structures and (B) ROCS overlay of ARDP0006 and pyrimethamine. […] Infectious virus in cell supernatant was quantified by plaque assay at 24 hpi (left y axis, black or red). Cell viability was measured at the same pyrimethamine doses 24 h posttreatment by WST-1 assay (right y axis, gray). Viral titer and cell viability were normalized to DMSO-treated samples. (D) Splenic titers of DENV2-infected AGB6 mice at 4 days postinfection. Mice were infected with 1 × 10^6 PFU DENV2 and treated twice daily with 20 mg/kg pyrimethamine (n = 9) or a vehicle control (n = 10). Data were analyzed by two-tailed unpaired t test. (E) Cleavage kinetics of NS2B/3/4A in the presence of 100 μM pyrimethamine. NS2B/3/4A protein was expressed in vitro and radiolabeled with [^35S]methionine, followed by treatment with 100 μM pyrimethamine or DMSO. Reaction samples were obtained over a 45-min time course, separated by SDS-PAGE, and the fraction of uncleaved proteinase precursor remaining was determined as described previously ([23]). Data from three replicates were fit using single-phase exponential decay functions, and P value was determined by comparing the rate constant, K, of the models using the extra sum-of-squares F test.
Dengue plaque assays were carried out on BHK-21 cells in 24-well plates. Cells were infected with 10-fold serial dilutions of virus, which were allowed to adsorb for at least 1 h at 37°C, and overlaid with standard cell culture medium plus 0.37% (w/vol) sodium bicarbonate and 0.8% (w/vol) Aquacide II (Millipore Calbiochem). After 7 days of incubation at 37°C, 5% CO2, cells were fixed with 5% (final) formaldehyde and stained with crystal violet for plaque enumeration.
Between 4 × 10^4 and 1 × 10^5 Huh7 cells per well were seeded into 24-well plates 1 day prior to infection. Compounds were diluted to 100× final concentration in DMSO and then further diluted 1:100 into appropriate cell culture. Unless otherwise indicated, tested compounds were present for 1 h pretreatment and readministered for posttreatment following infection. […] Media and drugs were removed from cells for infection at a multiplicity of infection (MOI) of 0.1 or 0.5 in 200 μl cold medium per well. After 1 h at 37°C, virus inoculum was removed by aspiration and replaced with medium plus compound or control. After 24-h total infection, infectious virus was quantified by plaque assay. Antiviral IC50 dose-response curves were fitted in GraphPad Prism 8 using the “[inhibitor] versus response, variable slope” function with a constraint “bottom > 0.” IC90 values are defined as the dose at which “y = (span × 0.1) + bottom.”

dengue virus [2] = test: Virucidal activity assay, 60-min incubation of drug with virus, plaque assay on BHK-21 cells; format: cell-based; conditions: 0.1 μM ST-148, 1 h at 37°C
Method: as §2
Compounds were diluted to 100× in DMSO, then further diluted 1:100 into phosphate-buffered saline (PBS) containing dengue virus to a final volume of 200 μl and mixed. Aliquots were taken for plaque assays immediately after addition of compounds (time [T] = 0 min) or after incubation at 37°C for 60 min (T = 60 min).

BHK-21 and Huh7 cells = test: Cell viability by WST assay in uninfected cells (Table S1); format: cell-based; conditions: cell viability relative to vehicle at these doses
Method: as §1, with “The Tanimoto combo score of each hit during initial ROCS screening is indicated; higher Tanimoto combo scores are indicative of increased chemical similarity. Download Table S1, PDF file, 0.04 MB.” left out
Supplementary file : FIG S1 Initial screening of eliminated hit compounds for anti-dengue activity in tissue culture cells. […] Cell viability in uninfected cells in the presence of compounds for 48 h was measured by WST assay (gray). […]
Mock-infected wells were used to determine cell viability in the presence of chemical compounds compared to 1% DMSO vehicle control. Cell viability was determined using the WST-1 kit (Abcam) per the manufacturer’s instructions. […]

Row | SMILES | Antiviral (dengue virus [1]) | further results
1 | COc1cc2nc(N3CCN(C(=O)C4COc5ccccc5O4)CC3)nc(N)c2cc1OC (stereo not shown) [Doxazosin] | + (weakly antiviral, with titer between 20 and 50% of vehicle) | 
2 | Cc1cnc(NC(=O)C2=C(O)c3ccccc3S(=O)(=O)N2C)s1 [Meloxicam] | − (not antiviral, with titer greater than 50% of vehicle) | 
3 | Cc1nccn1CC1CCc2c(c3ccccc3n2C)C1=O (stereo not shown) [Ondansetron] | ++ (moderately antiviral, with titer between 5 and 20% of vehicle) | 
4 | C[C@@]1(O)[C@H](O)[C@@H](CO)O[C@H]1n1ccc2c(N)ncnc21 [MK0608] |  | Viral RNA abundance (dengue viral RNA; 50 μM MK0608, control for inhibited vRNA replication): significantly reduced vRNA load; also recorded: strongly reduced viral RNA abundance
5 | Nc1c(C(=O)Nc2nnc(-c3ccccc3)s2)sc2nc3c(cc12)CCCCC3 [ST-148] |  | Virion production at increased dose after entry (DENV2; 10 μM ST-148 or 1 μM niclosamide added after 4 h of infection, extracellular virus at 24 hpi): effective during later, postentry stages; also recorded: inhibited virion production; IC90 (DENV2; Dengue virus, Huh-7, DENV2-infected Huh7 cells, from dose-response curve fit, 24 hpi): 5600 nM; IC50 (DENV2; Dengue virus, Huh-7, DENV2-infected Huh7 cells, single infectious cycle, plaque assay at 24 hpi, read-out: IC50 of viral inhibition (infectious extracellular virus)): 380 nM; Viral titer on delayed addition of compound (DENV2; IC90 dose first added 4 h after infection, Huh7, 24 hpi): eliminated the observed reduction of viral titer; Virucidal activity (viral infectivity after coincubation) (dengue virus [2]): significantly reduced viral infectivity; Viral RNA abundance (dengue viral RNA; added 4 h postinfection at IC90 dose (5.6 μM ST-148, 0.66 μM niclosamide)): no difference in viral RNA abundance
6 | COc1ccc2[nH]c([S+]([O-])Cc3ncc(C)c(OC)c3C)nc2c1 (stereo not shown) [Omeprazole] | − (not antiviral, with titer greater than 50% of vehicle) | 
7 | CC1=NN(c2ccc(C)c(C)c2)C(=O)/C1=N\Nc1cccc(-c2cccc(C(=O)O)c2)c1O [Eltrombopag] | − (not antiviral, with titer greater than 50% of vehicle) | 
8 | Nc1c2c(nc3ccccc13)CCCC2O (stereo not shown) [Hydroxy tacrine] | − (not antiviral, with titer greater than 50% of vehicle) | 
9 | Cc1cccn2c(=O)c(-c3nnn[nH]3)cnc12 [Pemirolast] | − (not antiviral, with titer greater than 50% of vehicle) | 
10 | Nc1nc(N)c2nc(-c3ccccc3)c(N)nc2n1 [Triamterine] | +++ (highly antiviral, with titer less than 5% of vehicle) | Toxicity (BHK-21 and Huh7 cells): +++ (high toxicity, with cell viability less than 60% of vehicle)
11 | Cc1noc(NS(=O)(=O)c2ccc(N)cc2)c1C [Sulfisoxazole] | + (weakly antiviral, with titer between 20 and 50% of vehicle) | 
12 | COc1c2occc2cc2ccc(=O)oc12 [Methoxsalen] | − (not antiviral, with titer greater than 50% of vehicle) | 
13 | Cc1c(NC(=O)c2cccnc2)c(=O)n(-c2ccccc2)n1C [Nifenazone] | + (weakly antiviral, with titer between 20 and 50% of vehicle) | 
